According to patent US11492347B2 (ENYO PHARMA, priority 2018, dated 2022):

Experiments:
MAXF 401 = assay: Cytotoxicity, propidium iodide based monolayer assay; assay type: cell-based; conditions: Homo sapiens, MAXF401, 96 h; MAXF 401 breast adeno carcinoma, four days of treatment, T/C=50%; read-out: Absolute IC50
Procedure: (§1) The cytotoxicity was tested for compounds of the invention on five different cell-lines, namely LXFL 1121, MAXF 401, MMXF L-636, PRXF PC-3M and UXF 1138 which are respectively lung large cell carcinoma, breast adeno carcinoma, multiple myeloma, prostate adeno carcinoma and uterine sarcoma.
(§2) A working stock solution of the test compounds was prepared in DMSO at a concentration of 33 mM or 8.25 mM, and small aliquots were stored at −20° C. On each day of an experiment, a frozen aliquot of the working stock solution was thawed and stored at room temperature prior to and during treatment.
(§3) All liquid handling steps were performed using the Tecan Freedom EVO 200 platform. First, serial 2-fold dilutions of the 33 mM DMSO working stock solution were done in DMSO. The DMSO dilutions were then diluted 1:22 into cell culture medium in an intermediate dilution plate. Finally, 10 μl taken from the intermediate dilution plate were transferred to 140 μl/well of the final assay plate. Thus, the DMSO serial dilutions were diluted 1:330 with cell culture medium, and the DMSO concentration in the assay was 0.3% v/v.
(§4) Cell lines were routinely passaged once or twice weekly and maintained in culture for up to 20 passages. Most cell lines were grown at 37° C. in a humidified atmosphere with 5% CO2 in RPMI 1640 medium (25 mM HEPES, with L-glutamine, #FG1385, Biochrom, Berlin, Germany) supplemented with 10% (v/v) fetal calf serum (Sigma, Taufkirchen, Germany) and 0.05 mg/mL gentamicin (Life Technologies, Karlsruhe, Germany).
(§5) A modified propidium iodide (PI) based monolayer assay was used to assess the anti-cancer activity of the compounds. Briefly, cells were harvested from exponential phase cultures, counted and plated in 96 well flat-bottom microtiter plates at a cell density of 4,000 to 40,000 cells/well dependent on the cell line's growth rate. The individual seeding density for each cell line ensure exponential growth conditions over the whole or at least the bigger part of the treatment period. After a 24 h recovery period, to allow the cells to resume exponential growth, 10 μl of culture medium (6 control wells/cell line/plate) or of culture medium with test compounds were added. Compounds were applied at ten concentrations in 2-fold increments in duplicates up to 25 μM or 100 μM and treatment continued for four days. After four days of treatment, cells were next washed with 200 μl PBS to remove dead cells and debris, then 200 μl of a solution containing 7 μg/ml propidium iodide (PI) and 0.1% (v/v) Triton X-100 was added. After an incubation period of 1-2 hours at room temperature, fluorescence (FU) was measured using the Enspire Multimode Plate Reader (excitation λ=530 nm, emission k=620 nm) to quantify the amount of attached viable cells.
(§6) Drug effects were expressed in terms of the percentage of the fluorescence signal, obtained by comparison of the mean signal in the treated wells with the mean signal of the untreated controls (expressed by the test-versus-control value, T/C−value [%]):
(§7) [formula] IC values reported reflect the concentration of the test compound that achieves T/C=50%. Calculation was done by 4 parameter non-linear curve fit.

PRXF PC-3M = assay: as above; assay type: cell-based; conditions: Homo sapiens, 96 h; PRXF PC-3M prostate adeno carcinoma, four days of treatment, T/C=50%; read-out: Absolute IC50
Procedure: as §1, §2, §3, §4, §5, §6, §7

UXF 1138 = assay: as above; assay type: cell-based; conditions: 96 h; UXF 1138 uterine sarcoma, four days of treatment, T/C=50%; read-out: Absolute IC50
Procedure: as §1, §2, §3, §4, §5, §6, §7

LXFL 1121 = assay: as above; conditions: 96 h; LXFL 1121 lung large cell carcinoma, four days of treatment, T/C=50%; read-out: Absolute IC50
Procedure: as §1, §2, §3
Cell lines were routinely passaged once or twice weekly and maintained in culture for up to 20 passages. […]
A modified propidium iodide (PI) based monolayer assay was used to assess the anti-cancer activity of the compounds. Briefly, cells were harvested from exponential phase cultures, counted and plated in 96 well flat-bottom microtiter plates at a cell density of 4,000 to 40,000 cells/well dependent on the cell line's growth rate. […] After an incubation period of 1-2 hours at room temperature, fluorescence (FU) was measured using the Enspire Multimode Plate Reader (excitation λ=530 nm, emission k=620 nm) to quantify the amount of attached viable cells.
Drug effects were expressed in terms of the percentage of the fluorescence signal, obtained by comparison of the mean signal in the treated wells with the mean signal of the untreated controls (expressed by the test-versus-control value, T/C−value [%]): […]

[1] = test system: H1N1 (influenza A/New Caledonia/20/99); assay: microbe, parasite or virus in culture; assay type: cell-based; conditions: H1N1, A549, 48 h
[2] = target: T1, CISD2 Gene Product (NAF-1) (Homo sapiens, UniProt Q8N5K1); assay: Stability of Fe-S cluster binding of purified NEET protein (absorbance 458 nm); assay type: biochemical; conditions: for Time (in minutes) to achieve 50% loss of bound cluster (Absorbance 458 nm) / Residual cluster bound at end of experiment (Percentage Absorbance 458 nm at time zero): NAF-1 20 μM, compound 60 μM; for Time (in minutes) to achieve 50% loss of bound cluster (Absorbance 458 nm): pH 6, 37° C., run time 500 minutes, vehicle control 310 or 210; for Residual cluster bound at end of experiment (Percentage Absorbance 458 nm at time zero): pH 6, at 500 minutes, vehicle control 3%
T1 sequence (Q8N5K1 57-135 limits assumed): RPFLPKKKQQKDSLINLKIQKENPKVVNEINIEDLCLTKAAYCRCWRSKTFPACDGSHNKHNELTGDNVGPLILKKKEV
Procedure: (§8) The modulator effect on the NEET proteins encoded by human CISD1, CISD2, and CISD3 genes by the compounds of the invention has been tested and is reported below. Particularly, the biochemical function of the NEET proteins is measured by the stability of Fe—S cluster binding of the purified NEET proteins.
(§9) The Fe—S cluster binding capacity of NEET proteins is known to be coordinated by four amino-acids in a stretch of 16 (three Cysteine and one Histidine). As the lability of the Fe—S cluster of NEET proteins is sensitive to the environment, cluster stability measurements are one of the measures of interactions of NEET proteins with small molecules and compounds. NEET protein/2Fe-2S cluster stability can be assessed by monitoring the decay in absorbance of its characteristic 458-nm peak (characteristic of the oxidized 2Fe-2S cluster) over time. Each NEET protein (mitoNEET, NAF-1 and Miner 2) was tested for its Fe—S binding in the absence or presence of a compound according to the invention (see table 4 below). The rate of cluster release (time in minutes to achieve 50% loss of bound Fe—S cluster) was compared for each NEET protein in the presence of one of the compounds of the invention (in a 1:3 protein:compound molar ratio) relative to each protein alone.
(§10) At pH 6, all the three NEET proteins (mitoNEET, NAF-1 and Miner 2) have a characteristic rate of loss of the bound Fe—S cluster that can be measured by the decrease of absorbance at wavelength 458 nm over time, using a spectrophotometer. Thus, Bis-Tris buffer (100 mM Bis-Tris pH6, 100 mM Nacl) was used at pH 6 to dilute either DMSO (Blank sample: Bis-Tris Buffer pH 6, 66 μM DMSO), DMSO and one of the three NEET proteins (Control sample: Bis-Tris Buffer pH 6, 66 μM DMSO, 20 μM purified NEET protein) or DMSO, one of the three NEET proteins and a compound of the invention (Test sample: Bis-Tris Buffer pH 6, 66 μM DMSO, 20 μM purified NEET protein, 60 μM compound of the invention).
(§11) A reaction mix containing DMSO diluted in the Bis-Tris Buffer with or without a compound of the invention was prepared. The purified NEET protein was the last component added to the reaction mix which was then aliquoted into 4 replicates in 96 wells plates. The absorbance at wavelength 458 nm was taken at 5 minutes intervals at 37° C. with a spectrofluorimeter. The assay run time for CISD2 gene product (NAF-1) was 500 minutes and 180 minutes for both the CISD1gene product (mitoNEET) and the CISD3 gene product (Miner2).
(§12) In addition to time monitoring, residual bound Fe—S cluster to NEET protein was measured at the final point of the spectrometry assay for each Test sample and compared to the Control sample data (in parenthesis table 4). This residual binding is measured by the differential percentage between the absorbance 458 nm at time zero and the absorbance 458 nm at the end of the experiment (i.e. respectively 500 or 180 minutes as described here above), showing the percentage of NEET protein still able to bind a Fe—S cluster.
(§13) Analysis of the absorbance enables the time for which 50% loss of bound Fe—S cluster is reached (i.e. a 50% absorbance decrease at 458 nm) for each Test sample and each Control sample (in parenthesis table 4) to be determined. The data are then compared to determine whether the compound of the invention stabilizes or destabilizes the NEET protein/Fe—S cluster binding.

[3] = target: T2, CISD3 Gene Product (Miner2) (Homo sapiens, UniProt P0C7P0); assay: as above; assay type: biochemical; conditions: for Residual cluster bound at end of experiment (Percentage Absorbance 458 nm at time zero): CISD3 gene product 20 μM, pH 6, at 180 minutes, vehicle control 11%
T2 sequence (P0C7P0 15-127): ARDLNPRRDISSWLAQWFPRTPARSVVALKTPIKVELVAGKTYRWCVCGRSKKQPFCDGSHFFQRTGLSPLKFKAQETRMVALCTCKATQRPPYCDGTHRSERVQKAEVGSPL
Procedure: as §8, §9, §10, §11, §12, §13

[4] = target: T3, CISD1 Gene Product (mitoNEET) (Homo sapiens, UniProt Q9NZ45); assay: as above; assay type: biochemical; conditions: for Residual cluster bound at end of experiment (Percentage Absorbance 458 nm at time zero): pH 6, at 180 minutes, vehicle control 16%
T3 sequence (Q9NZ45 33-108 limits assumed): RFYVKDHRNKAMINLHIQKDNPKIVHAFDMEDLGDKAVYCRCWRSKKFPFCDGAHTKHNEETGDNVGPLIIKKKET
Procedure: as §8, §9, §10, §11, §12, §13

Zika = assay: Antiviral effect in infected Huh7 cells, plaque assay on VeroE6; assay type: cell-based, ZIKV strain MR766; conditions: Zika virus, Huh-7, MOI of 0,1 pfu per cell, supernatants 48 h post infection
Dengue = assay: microbe, parasite or virus in culture; assay type: cell-based, DENV serotype 2 strain New Guinea C; conditions: Huh-7, 48 h
West Nile Virus = assay: Antiviral effect in infected Huh7 cells, plaque assay on VeroE6; assay type: cell-based, WNV stain New-York 99; conditions: Huh-7, MOI of 0,1 pfu per cell, supernatants 48 h post infection
Procedure: Compound #18 was tested on other viruses. The NEET protein modulators are capable of inhibiting other viruses such as West Nile Virus, Dengue and Zika with a high efficiency.
Assays were performed with the following strains/serotypes: • DENV serotype 2 strain New Guinea C • ZIKV strain MR766 • WNV stain New-York 99
1×10^5 Huh7 cells were infected with DENV, ZIKV, or WNV at a MOI of 0,1 pfu per cell in presence of the test compound. Two hours post-infection the inoculum was removed and cells washed twice with PBS 1×. Fresh medium containing the test compound was added. Supernatants were harvested 48 h post infection, filtered through a 0.45 μm pore membrane and directly used for plaque assays.
VeroE6 cells were infected with serial dilutions of virus supernatants. Two hours post-infection inoculum was replaced by serum-free MEM medium (Gibco, Life Technologies) containing 1.5% carboxymethyl cellulose (Sigma-Aldrich). At different days post infection (day 3 for WNV, day 4 for ZIKV, day 7 for DENV) cells were fixed by addition of formaldehyde to a final concentration of 5%. Cells were stained with crystal violet solution (1% crystal violet, 10% ethanol in H2O) for 30 min at room temperature and extensively rinsed with H2O. Infectious titers were calculated considering the corresponding dilution factor.

[5] = time to 50% cluster loss changed by more than 25% compared to the Control sample, at the concentrations tested

CC1(C)CCc2c(sc(NC(=O)c3ccc(N4CCOCC4)cc3)c2C(=O)O)C1 [Compound #22, 6,6-Dimethyl-2-[(4-morpholinobenzoyl)amino]-5,7-dihydro-4H-benzothiophene-3-carboxylic acid]
IC50 (MAXF 401): 0.539 µM | IC50 (PRXF PC-3M): 0.705 µM | IC50 (UXF 1138): 0.332 µM | IC50 (LXFL 1121): 0.546 µM | IC50 [1]: 0.12 µM

COc1ccc(C(=O)Nc2sc3c(c2C(=O)O)CCC(C)(C)C3)cc1OC [Compound #18, 2-[(3,4-Dimethoxybenzoyl)amino]-6,6-dimethyl-5,7-dihydro-4H-benzothiophene-3-carboxylic acid]
IC50 [1]: 0.05 µM | Time (in minutes) to achieve 50% loss of bound cluster (Absorbance 458 nm) [2]: 425 (310) minutes | Residual cluster bound at end of experiment (Percentage Absorbance 458 nm at time zero) [2]: 42% (3%) | Residual cluster bound at end of experiment (Percentage Absorbance 458 nm at time zero) ([3]; compound 60 μM): 70% (11%) | Stabiliser or destabiliser of Fe-S cluster binding by CISD3 Gene Product (Miner2) [3, 5]: Stabilisers | Residual cluster bound at end of experiment (Percentage Absorbance 458 nm at time zero) ([4]; mitoNEET 20 μM, compound 60 μM): 62% (16%) | Stabiliser or destabiliser of Fe-S cluster binding by CISD1 Gene Product (mitoNEET) [4, 5]: stabilisers | IC50 (Zika): 3 µM | IC50 (Dengue): 5 µM | IC50 (West Nile Virus): 2.5 µM

CC1(C)Cc2c(sc(NC(=O)c3ccc(NC4CCOCC4)cc3)c2C(=O)O)C(C)(C)C1 [Compound #35, 5,5,7,7-Tetramethyl-2-[[4-(tetrahydropyran-4-ylamino)benzoyl]amino]-4,6-dihydrobenzothiophene-3-carboxylic acid]
IC50 (PRXF PC-3M): 0.702 µM | IC50 (UXF 1138): 0.743 µM | IC50 [1]: 0.0168 µM | Time (in minutes) to achieve 50% loss of bound cluster (Absorbance 458 nm) [2]: 220 (310) minutes | Residual cluster bound at end of experiment (Percentage Absorbance 458 nm at time zero) [2]: 13% (3%) | Stabiliser or destabiliser of Fe-S cluster binding by CISD2 Gene Product (NAF-1) [2, 5]: destabilisers | Residual cluster bound at end of experiment (Percentage Absorbance 458 nm at time zero) ([3]; compound 60 μM): 20% (11%) | Time (in minutes) to achieve 50% loss of bound cluster (Absorbance 458 nm) ([3]; Miner2 20 μM, compound 60 μM, pH 6, 37° C., run time 180 minutes, vehicle control 60): 50 (60) minutes | Time (in minutes) to achieve 50% loss of bound cluster (Absorbance 458 nm) ([4]; mitoNEET 20 μM, compound 60 μM, pH 6, 37° C., run time 180 minutes, vehicle control 80): 85 (80) minutes | Residual cluster bound at end of experiment (Percentage Absorbance 458 nm at time zero) ([4]; mitoNEET 20 μM, compound 60 μM): 26% (16%)
